Measured values: US10556865B2, “Synergistic herbicidal composition containing certain pyridine or pyrimidine carboxylic acids and certain cereal and rice herbicides” (Dow AgroSciences, LLC, priority 2007, dated 2020)
Where “and” joins values, the source holds several entries; their conditions need not be identical. Equal values may be shown once.

Experiments:
Format in all cases: in vivo
[1] = tested on: Digitaria sanguinalis (L.) SCOP. (DIGSA); experiment: Postemergence herbicidal mixtures for weed control in direct seeded rice (greenhouse, visual % injury)
[2] = tested on: Polygonum pensylvanicum L. (POLPY); experiment: as above
[3] = tested on: wild pansy (Viola tricolor L; VIOTR); experiment: Postemergence herbicidal activity of mixtures in cereal crops (greenhouse, visual injury)
Method in brief: (§1)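 Weeds grown in greenhouse (~14 h photoperiod, ~18/17 °C day/night) to second–third true leaf stage, sprayed postemergence with compound and second cereal herbicide alone or combined; solvent-blank controls. Injury scored visually after 20-22 days, 0–100% (complete kill); expected mixture activity = A+B−(A×B/100).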

[4] = tested on: Russian thistle (Salsola iberica L; SASKR); experiment: as above
Method in brief: (§2)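 Compounds A and B, as methyl ester or TEA/K salts, are tested alone and mixed with a second cereal herbicide on greenhouse plants at the second–third true leaf stage. Spray volume is 187 L/ha. Percent visual injury at 20–22 days is compared with Colby-expected mixture response.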

[5] = tested on: kochia (Kochia scoparia L; KCHSC); experiment: as above
Method in brief: as §2

[6] = tested on: Leptochloa chinensis (L.) NEES (LEFCH); experiment: Postemergence herbicidal mixtures for weed control in direct seeded rice (greenhouse, visual % injury); conditions: LEFCH; 70 g/ha alone
[7] = tested on: Echinochloa species (ECHSS); experiment: Herbicidal mixtures for weed control in transplanted paddy rice (in-water application, visual % injury after 3 weeks); conditions: ECHCG
Method: (§3) Weed seeds or nutlets of the desired test plant species were planted in puddled soil (mud) prepared by mixing a non-sterilized mineral soil (28 percent silt, 18 percent clay, and 54 percent sand, with a pH of about 7.3 to 7.8 and an organic matter content of about 1.0 percent) and water at a ratio of 100 kilograms (kg) of soil to 19 L of water. The prepared mud was dispensed in 250 mL aliquots into 480 mL non-perforated plastic pots with a surface area of 91.6 square centimeters leaving a headspace of 3 centimeters in each pot. Rice seeds were planted in Sun Gro MetroMix® 306 planting mixture, which typically has a pH of 6.0 to 6.8 and an organic matter content of about 30 percent, in plastic plug trays. Seedlings at the second or third leaf stage of growth were transplanted into 650 mL of mud contained in 960 mL non-perforated plastic pots with a surface area of 91.6 cm^2 4 days prior to herbicide application. The paddy was created by filling the 3 centimeter headspace of the pots with water. When required to ensure good germination and healthy plants, a fungicide treatment and/or other chemical or physical treatment was applied. The plants were grown for 4-14 days in a greenhouse with an approximate 14 hr photoperiod which was maintained at about 29° C. during the day and 26° C. during the night. Nutrients were added as Osmocote (17:6:10, N:P:K+minor nutrients) at 2 g per cup. Water was added on a regular basis to maintain the paddy flood, and supplemental lighting was provided with overhead metal halide 1000-Watt lamps as necessary. The plants were employed for testing when they reached the second or third true leaf stage.
(§4) Treatments consisted of esters or salts of compound A, compound C, or compound D and various herbicidal components alone and in combination. For technical grade compounds, a weighed amount, determined by the highest rate to be tested, was placed in an individual 120 mL glass vial and was dissolved in 20 mL of acetone to obtain concentrated stock solutions. […] The concentrated stock solutions obtained were diluted with 20 mL of an aqueous mixture containing 2.5% Agri-dex crop oil concentrate (v/v). For formulated compounds, a measured amount, determined by the highest rate to be tested, was placed in an individual 120 mL glass vial and was dissolved in 20 mL of 2.5% (v/v) Agri-dex crop oil concentrate to obtain concentrated stock solutions. The concentrated stock solutions obtained were diluted with 20 mL of acetone. Applications were made by injecting an appropriate amount of the stock solution into the aqueous layer of the paddy. Control plants were treated in the same manner with the solvent blank. All treated plant material received the same concentration of acetone and crop oil concentrate.
(§5) Forms of compounds A, C, and D were applied on an acid equivalent basis. Other herbicidal components were applied on an active ingredient basis and included acetolactate synthase (ALS)-inhibiting herbicides penoxsulam (triazolopyrimidine chemical class) applied as Grasp SC, […] (sulfonylurea chemical class) applied as Sirius G, and bensulfuron-methyl (sulfonylurea chemical class) applied as Londax; acetyl CoA carboxylase (ACCase) inhibiting herbicides cyhalofop-butyl applied as Clincher G and fenoxaprop-p-ethyl applied as Ricestar HT; auxinic herbicide quinclorac applied as Facet 75 DF; phytoene desaturase inhibiting herbicide norflurazon; and p-hydroxyphenylpyruvate dioxygenase (HPPD) inhibiting herbicide sulcotrione applied as Mikado.
(§6) The treated plants and control plants were placed in a greenhouse as described above and water was added as needed to maintain a paddy flood. After 3 weeks the condition of the test plants as compared with that of the untreated plants was determined visually and scored on a scale of 0 to 100 percent where 0 corresponds to no injury and 100 corresponds to complete kill.

[8] = tested on: Eleocharis kuroguwai OHWI (ELOKU); experiment: Herbicidal mixtures for weed control in transplanted paddy rice (in-water application, visual % injury)
Method: as §3, §4, §5, §6

[9] = tested on: Scirpus maritimus L. (SCPMA); experiment: as above
Method: as §3, §4, §5, §6

Cyperus species (CYPSS) = experiment: as above
Method: as §3, §4, §5, §6

[10] = tested on: Sphenoclea zeylanica GAERTN. (SPDZE); experiment: as above
Method: as §3, §4, §5, §6

[11] = tested on: Leptochloa chinensis (L.) NEES (LEFCH); experiment: as above
Method: as §3, §4, §5, §6

[12] = tested on: Fimbristylis miliacea (L.) VAHL (FIMMI); experiment: as above
Method: as §3, with “When required to ensure good germination and healthy plants, a fungicide treatment and/or other chemical or physical treatment was applied.” left out
as §4, §5, §6

[13] = tested on: Cyperus esculentus L. (CYPES); experiment: Postemergence herbicidal mixtures for weed control in direct seeded rice (greenhouse, visual % injury)
Cyperus iria L. (CYPIR) = experiment: as above
Scirpus species (SCPSS) = experiment: Herbicidal mixtures for weed control in transplanted paddy rice (in-water application, visual % injury); conditions: SCPJU; 90 g/ha alone
Method: as §3, with “When required to ensure good germination and healthy plants, a fungicide treatment and/or other chemical or physical treatment was applied.” left out
as §4, §5, §6

[14] = tested on: Ipomoea hederacea (L.) JACQ. (IPOHE); experiment: Postemergence herbicidal mixtures for weed control in direct seeded rice (greenhouse, visual % injury after 3 weeks)
[15] = tested on: scented mayweed (Matricaria chamomila L; MATCH); experiment: Postemergence herbicidal activity of mixtures in cereal crops (greenhouse, visual injury)
Method in brief: as §1

[16] = tested on: bird's-eye speedwell (Veronica persica L; VERPE); experiment: as above
Method in brief: as §1

[17] = tested on: wild mustard (Sinapis arvensis L; SINAR); experiment: as above
Method in brief: as §2

[18] = tested on: ivy-leaved speedwell (Veronica hederifolia L; VERHE); experiment: as above; conditions: 12.5 g/ha
Method in brief: as §2

[19] = tested on: blackgrass (Alopecurus myosuroides L; ALOMY); experiment: Postemergence herbicidal activity of mixtures in cereal crops (greenhouse, visual injury 0-100 percent after 20-22 days); conditions: 15 g/ha, Table 1
Method in brief: (§7)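 Plants at second-third true leaf stage sprayed postemergence at 187 L/ha with compound and second cereal herbicide alone and combined; solvent blank controls. Visual injury scored 0-100% versus controls after 20-22 days; expected mixture effects by Colby's equation.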

[20] = tested on: chickweed (Stellaria media L; STEME); experiment: Postemergence herbicidal activity of mixtures in cereal crops (greenhouse, visual injury); conditions: Stellaria media, post-emergence, 15 g/ha; read-out: STEME Ob
Method in brief: as §2

[21] = tested on: green foxtail (Setaria viridis L; SETVI); experiment: as above; conditions: 15 g/ha, Table 1
Method in brief: as §2

[22] = tested on: lamb's-quarters (Chenopodium album L; CHEAL); experiment: as above; conditions: 15 g/ha
Method in brief: as §2

[23] = tested on: annual ryegrass (Lolium multiflorum L; LOLMG); experiment: as above; conditions: 15 g/ha, Table 1
Method in brief: as §7

[24] = tested on: wild oats (Avena fatua L; AVEFA); experiment: as above; conditions: 15 g/ha, Table 1
Method in brief: as §7

[25] = tested on: windgrass (Apera spica-venti L; APESV); experiment: as above; conditions: Apera spica-venti, post-emergence, 15 g/ha, Table 1; read-out: APESV Ob
Method in brief: as §7

Compound: O=C(O)CNCP(=O)(O)O [Glyphosate]
- % Injury Ob ([1]; 70 g/ha alone): 0%
- % Injury Ob ([2]; POLPY, 70 g/ha alone): 0%
- pest or weed control at 52.5 g/ha ([3]; Viola tricolor, post-emergence, read-out: VIOTR Ob): 52%
- SASKR Ob ([4]; 52.5 g/ha alone): 0%
- KCHSC Ob ([5]; 52.5 g/ha alone): 0%
- % Injury Ob [6]: 20%

Compound: CCN(CC)CC.COc1c(Cl)ccc(-c2cc(N)c(Cl)c(C(=O)O)n2)c1Cl [Compound C TEA]
- % Injury Ob ([7]; 35 g/ha alone): 0%
- % Injury Ob ([7]; 70 g/ha alone): 25%
- % Injury Ob ([8]; 35 g/ha alone): 0%
- % Injury Obs ([8]; 35 g/ha alone): 0%
- % Injury Ob ([8]; 70 g/ha alone): 50%
- % Injury Obs ([8]; 70 g/ha alone): 50%
- % Injury Ob ([9]; 35 g/ha alone): 0%
- % Injury Ob ([9]; 70 g/ha alone): 0%
- % Injury Ob (Cyperus species (CYPSS); CYPES, 35 g/ha alone): 0%
- % Injury Ob (Cyperus species (CYPSS); CYPES, 70 g/ha alone): 40%
- % Injury Ob (Cyperus species (CYPSS); CYPIR, 35 g/ha alone): 20%
- % Injury Ob (Cyperus species (CYPSS); CYPIR, 70 g/ha alone): 60%
- % Injury Ob ([10]; 35 g/ha alone): 50%
- % Injury Ob ([10]; 70 g/ha alone): 80%
- % Injury Ob ([11]; 35 g/ha alone): 50%
- % Injury Ob ([11]; 70 g/ha alone): 95%
- % Injury Ob ([12]; 35 g/ha alone): 0%
- % Injury Ob ([12]; 70 g/ha alone): 0%

Compound: CCCCOC(=O)[C@@H](C)Oc1ccc(Oc2ccc(C#N)cc2F)cc1 [Cyhalofop-butyl]
- % Injury Ob ([7]; 90 g/ha alone): 50%
- % Injury Ob ([7]; 180 g/ha alone): 75% and 95%
- % Injury CYPES Ob ([13]; alone 100 g/ha): 0%
- % Injury CYPES Ob ([13]; alone 200 g/ha): 0%
- % Injury Ob ([9]; 90 g/ha alone): 0%
- % Injury Ob (Cyperus species (CYPSS); CYPES, 90 g/ha alone): 0%
- % Injury Ob (Cyperus species (CYPSS); CYPIR, 90 g/ha alone): 0%
- % Injury Ob ([10]; 90 g/ha alone): 0%
- % Injury Ob ([11]; 90 g/ha alone): 50%
- % Injury CYPIR Ob (Cyperus iria L. (CYPIR); alone 140 g/ha): 0%
- % Injury CYPIR Ob (Cyperus iria L. (CYPIR); alone 280 g/ha): 0%
- % Injury POLPY Ob ([2]; alone 100 g/ha): 0%
- % Injury Ob ([12]; 90 g/ha alone): 0%
- % Injury Ob (Scirpus species (SCPSS)): 0%
- % Injury IPOHE Ob ([14]; alone 140 g/ha): 0%
- % Injury IPOHE Ob ([14]; alone 280 g/ha): 0%

Compound: O=c1c(Cl)c[nH]c(Cl)c1Cl [Pyriclor]
- % Injury Ob ([1]; 140 g/ha alone): 80%

Compound: O=C(Nc1ccc(F)cc1)c1cccc(Oc2cccc(C(F)(F)F)c2)n1 [Picolinafen]
- MATCH Ob ([15]; 15 g/ha alone): 10%
- VERPE Ob ([16]; 12.5 g/ha): 0%
- VERPE Ob ([16]; 15 g/ha alone): 43%
- VIOTR Ob ([3]; 12.5 g/ha): 0%
- VIOTR Ob ([3]; 15 g/ha alone): 78%
- SASKR Ob ([4]; 15 g/ha alone): 60%
- SINAR Ob ([17]; 12.5 g/ha): 5%
- VERHE Ob [18]: 5%
- KCHSC Ob ([5]; 12.5 g/ha): 5%

Compound: O=C(Nc1ccc(F)cc1F)c1cccnc1Oc1cccc(C(F)(F)F)c1 [Diflufenican, N-(2,4-difluorophenyl)-2-[3-(trifluoromethyl)phenoxy]-3-pyridinecarboxamide, reference compound]
- ALOMY Ob [19]: 0%
- pest or weed control at 12.5 g/ha ([15]; Matricaria, post-emergence, 12.5 g/ha alone, read-out: MATCH Ob): 7%
- pest or weed control at 15 g/ha ([15]; Matricaria, post-emergence, 15 g/ha, read-out: MATCH Ob): 5%
- pest or weed control at 12.5 g/ha ([16]; Veronica persica, post-emergence, 12.5 g/ha alone, read-out: VERPE Ob): 7%
- pest or weed control at 15 g/ha ([16]; Veronica persica, post-emergence, 15 g/ha, read-out: VERPE Ob): 38%
- pest or weed control at 12.5 g/ha ([3]; Viola tricolor, post-emergence, 12.5 g/ha alone, read-out: VIOTR Ob): 35%
- pest or weed control at 15 g/ha ([3]; Viola tricolor, post-emergence, 15 g/ha, read-out: VIOTR Ob): 15%
- SINAR Ob ([17]; 15 g/ha): 0%
- pest or weed control at 15 g/ha [20]: 3%
- SETVI Ob [21]: 0%
- CHEAL Ob [22]: 0%
- KCHSC Ob ([5]; 12.5 g/ha alone): 12%
- LOLMG Ob [23]: 0%
- AVEFA Ob [24]: 0%
- pest or weed control at 15 g/ha [25]: 0%
